Paper PMC6009976, “Pharmacophore-based design and discovery of (−)-meptazinol carbamates as dual modulators of cholinesterase and amyloidogenesis” (Journal of Enzyme Inhibition and Medicinal Chemistry, 2017)
Read-outs that look alike come from different tables or passages of the source. Marks after values point to notes of the source that are not given here.

Experiments:
[1] = molecular target: T1, AChE (mice brain homogenate) (Mus musculus, UniProt P21836); assay: In vitro AChE inhibition assay (Ellman's method); type: biochemical; conditions: for Selectivity for AChE (IC50 for BChE divided by IC50 for AChE): mice serum BChE, (−)-meptazinol from values of ref 17
T1 construct: a solution of AChE (1:9 w/v homogenate in 0.1 M phosphate buffer (PB), pH 7.4); from tissue; host or cells: mouse brain homogenate
T1 sequence (P21836 32-614): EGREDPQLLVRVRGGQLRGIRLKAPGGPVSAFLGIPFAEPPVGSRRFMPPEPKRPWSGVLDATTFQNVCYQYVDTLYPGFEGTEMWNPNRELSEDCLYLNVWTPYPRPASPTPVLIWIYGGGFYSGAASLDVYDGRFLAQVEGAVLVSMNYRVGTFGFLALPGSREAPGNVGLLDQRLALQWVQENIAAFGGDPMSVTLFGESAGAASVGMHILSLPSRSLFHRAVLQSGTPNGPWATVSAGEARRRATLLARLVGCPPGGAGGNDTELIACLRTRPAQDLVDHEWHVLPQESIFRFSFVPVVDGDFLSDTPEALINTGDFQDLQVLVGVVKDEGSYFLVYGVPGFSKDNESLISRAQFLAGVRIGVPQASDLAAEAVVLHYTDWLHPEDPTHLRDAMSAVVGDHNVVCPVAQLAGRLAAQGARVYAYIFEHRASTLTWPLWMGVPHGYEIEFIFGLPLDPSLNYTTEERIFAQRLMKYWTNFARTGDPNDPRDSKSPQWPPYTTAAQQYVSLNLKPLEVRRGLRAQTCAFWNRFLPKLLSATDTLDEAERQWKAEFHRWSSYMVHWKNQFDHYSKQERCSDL
Experimental: (§1) Inhibitory activities of the compounds toward AChE and BChE were evaluated by Ellman’s method, employing mice brain homogenate as source of AChE and mice serum as source of BChE. […] After incubation for 20 min at 37 °C, Ellman’s reagent (300 µL, 5,5′-dithiobis(2-nitrobenzoic acid) (DTNB), 0.5 mM in 0.1 M PB, pH 7.4) and acetylthiocholine iodide (ATCh) (300 µL of 0.5 mM water solution) were added successively, and percent inhibition was determined by absorbance changes at 412 nm detected by UV spectrophotometry compared with control. BChE inhibition assay was similarly carried out using butyrylthiocholine iodide (BTCh) (0.5 mM) as the substrate and BChE (1:19 v/v serum in 0.1 M PB, pH 7.4) as the enzyme source.

[2] = molecular target: T1, AChE (mice brain homogenate); conditions: cited from earlier work
[3] = molecular target: T2, rHuAChE immobilized on EDA CIM disk (Homo sapiens, UniProt P22303); assay: Carbamoylation and decarbamoylation rate constants on AChE immobilized disk; type: biochemical; conditions: for Kd: inhibitor 50 and 100 nM; for Carbamoylation half-time: inhibitor 50 nM
Experimental: The EDA CIM disk was first connected to a syringe pump and equilibrated with 10 column volumes (CV) of triple-distilled water and 10 CVs of 0.5 M Na-PB (pH 8.0). The flow rate was set at 0.5 mL/min. Then, the disk was activated by a 1% glutaraldehyde solution in PB (0.1 M, pH 7.4) (in the dark, 12 h, 4 °C). The activated disk was washed with 10 CVs of PB. 2 mL of rHuAChE in PB (10 U/mL) was then added into the column and left to react overnight (4 °C). The Schiff bases were reduced by 5 mL of 0.1 M sodium triacetoxyborohydride (STAB) in PB (2 h at room temperature) and 5 mL of 0.2 M monoethanolamine in PB (3 h at room temperature)[39]. The column was connected to the liquid chromatography system and equilibrated with a mobile phase consisting of 0.5 M NaCl and 10^−4 M DTNB in PB (buffer A) for 10 min. Reference enzyme activity was assessed by injecting 20 µL of saturating substrate (ATCh, 50 mM). The peak area was calculated and noted as A0. Then, the mobile phase was switched to the one containing selected concentrations of inhibitor (carbamoylation phase). Aliquots of 20 µL of saturating substrate were injected every 10–20 min and the time-dependent decreasing of peak area (Ai) was monitored down to a plateau. Once a constant plateau was reached, mobile phase was switched to buffer A again (decarbamoylation phase). Aliquots of substrate were kept injecting into the system to monitor the recovery of AChE activity over time. […] The experiment was carried out for two different concentrations of 42 and 43 (50 and 100 nM). The process of AChE carbamoylation and decarbamoylation is generally described as Scheme 1[40–42].
Calculation of ki and k3 was performed by applying Perola’s mathematical equation[43]. The affinity of the inhibitors toward the enzyme (KD) was calculated following Equation (1). (1) […]

[4] = molecular target: T2, rHuAChE immobilized on EDA CIM disk; conditions: cited from earlier work
[5] = cited from earlier work
[6] = system: AChE from human erythrocytes; conditions: human erythrocyte AChE; read-out: IC50 ± SEM AChE; cited from earlier work
[7] = system: Aβ40/Aβ42 in SH-SY5Y-APP695 cells; conditions: 50 µM; cited from earlier work
[8] = system: APP in SH-SY5Y-APP695 cells; conditions: 50 µM; cited from earlier work
human serum BChE = conditions: read-out: IC50 ± SEM BChE; cited from earlier work
mice brain AChE = conditions: training set, read-out: Experimental IC50; cited from earlier work
Kunming mice = assay: in vivo; conditions: mice; as doses escalate
Experimental: (§2) Acute toxicity was evaluated in mice of both sexes (20–25 g Kunming mice from experimental animal center of Shanghai Jiao Tong University School of Medicine). All animals were housed in plastic cages with food and water ad libitum and maintained on a 12/12 h light/dark cycle at 22 ± 1 °C. […] Compounds 42 and 43 were dissolved in a 1:10 propylene glycol-normal saline mixture at 0.1 mol/L and then diluted to the final stepwise concentrations with normal saline. Each concentration of the compound was orally or intraperitoneally administered to a group of 10 animals. After two weeks of observation, the lethal rate for each group was measured. A 95% confidence interval for 42 or 43 after oral or intraperitoneal administration was calculated by Bliss method.

in vivo = conditions: both, Kunming, mouse, in vivo
Experimental: as §2

rHuAChE = rHuAChE (Homo sapiens, UniProt P22303); assay: Determination of the enzyme kinetic parameters Km and Vmax; type: biochemical; conditions: for Type of AChE inhibition: Lineweaver–Burk plots, decreased Vmax, unvaried Km
Experimental: 10 µL inhibitors of different concentrations and 50 µL rHuAChE enzyme solution of 0.5 U/mL were mixed and incubated for 20 min, then 75 µL of DTNB solution and 100 µL of ATCh solution (concentration ranging from 0.057 mM to 0.2 mM) were added to the mixture. Enzyme activity was determined right after ATCh was added by modified Ellman’s spectrophotometrical method. The Km and Vmax values for AChE inhibition were calculated by regression analysis of Lineweaver–Burk plots (1/velocity versus 1/[substrate]).

BChE (mice serum) = molecular target: T3, BChE (mice serum) (Mus musculus, UniProt Q03311); assay: In vitro BChE inhibition assay (Ellman's method); type: biochemical; conditions: read-out: IC50 ± SEM BChE
T3 construct: BChE (1:19 v/v serum in 0.1 M PB, pH 7.4) as the enzyme source; from tissue; host or cells: mouse serum
Experimental: as §1

[9] = system: Aβ40/Aβ42 in SH-SY5Y-APP695 cells; assay: Quantification of Aβ40/Aβ42 by ELISA in cell culture medium; type: cell-based, human; conditions: for Reduction of Aβ42 level / Level of Aβ40: 50 µM; for Level of Aβ40: data not shown
Experimental: (§3) Human neuroblastoma SH-SY5Y cells transfected with wild-type APP695 gene (SH-SY5Y-APP695)[44] of 5 × 10^4/well (SH-SY5Y-APP695 kindly provided by Prof. Shengdi Chen, Ruijin Hospital, Shanghai Jiao Tong University School of Medicine) were plated in 200 µL culture medium (DMEM/F12, 10% Fetal Bovine Serum, 300 µg/mL G418, 100 U/mL penicillin + 100 µg/mL streptomycin) and incubated for 48 h at 37 °C in 5% CO2. Compounds 42 and 43 dissolved in culture medium were applied to the cells and incubated at 37 °C in 5% CO2 for 16 h. The cells were fixed and permeabilized. Mouse anti-APP monoclonal antibody N-terminus (MAB348, CHEMICON) and Goat anti-Mouse IgG conjugated to Alexa Fluor 555 were used as primary antibody and secondary antibody to detect APP while Hoechst Dye was used to stain nucleus simultaneously. KineticScan HCS System was employed to automatically find, focus, image, and analyze the cells on double-fluorescence channel guided by Target Activation Bioapplication. Fluorescence Unit of APP versus that of nucleus was used to evaluate the expression of APP, in order to balance the background.
The cell culture medium was collected and added with phenylmethylsulfonyl fluoride (PMSF) to the final concentration of 0.1%. The concentration of Aβ40/Aβ42 in the medium was measured by Human/Rat βAmyloid (40/42) ELISA Kit Wako and calculated according to the standard line.

[10] = system: APP in SH-SY5Y-APP695 cells; assay: Quantification of APP by high content screening; type: cell-based, human; conditions: 16 h; for Reduction of intracellular APP level: 50 µM
Experimental: as §3

[11] = reference compound to verify the disk
[12] = dissociation (decarbamoylation) constant, Mean ± SD, n = 6
[13] = inhibit (carbamoylation) constant, Mean ± SD, n = 6

T2 sequence (P22303 32-614): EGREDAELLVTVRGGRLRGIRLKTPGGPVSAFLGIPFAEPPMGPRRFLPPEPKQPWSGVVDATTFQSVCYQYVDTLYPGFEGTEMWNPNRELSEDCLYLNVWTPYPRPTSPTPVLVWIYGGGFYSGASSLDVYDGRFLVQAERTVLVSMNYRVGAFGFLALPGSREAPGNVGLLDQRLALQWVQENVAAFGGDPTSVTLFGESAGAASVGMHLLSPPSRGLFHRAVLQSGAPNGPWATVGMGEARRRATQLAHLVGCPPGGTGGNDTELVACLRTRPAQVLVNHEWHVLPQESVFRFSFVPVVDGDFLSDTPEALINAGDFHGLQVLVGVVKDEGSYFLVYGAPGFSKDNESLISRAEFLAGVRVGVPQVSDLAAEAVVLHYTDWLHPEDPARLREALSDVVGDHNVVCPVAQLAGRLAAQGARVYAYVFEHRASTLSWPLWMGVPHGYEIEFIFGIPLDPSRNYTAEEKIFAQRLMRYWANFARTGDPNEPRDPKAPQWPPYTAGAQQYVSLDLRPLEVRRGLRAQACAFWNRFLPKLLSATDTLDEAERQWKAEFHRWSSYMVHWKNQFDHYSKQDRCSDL
Sequence of rHuAChE (P22303 32-614): as above
T3 sequence (Q03311 30-603): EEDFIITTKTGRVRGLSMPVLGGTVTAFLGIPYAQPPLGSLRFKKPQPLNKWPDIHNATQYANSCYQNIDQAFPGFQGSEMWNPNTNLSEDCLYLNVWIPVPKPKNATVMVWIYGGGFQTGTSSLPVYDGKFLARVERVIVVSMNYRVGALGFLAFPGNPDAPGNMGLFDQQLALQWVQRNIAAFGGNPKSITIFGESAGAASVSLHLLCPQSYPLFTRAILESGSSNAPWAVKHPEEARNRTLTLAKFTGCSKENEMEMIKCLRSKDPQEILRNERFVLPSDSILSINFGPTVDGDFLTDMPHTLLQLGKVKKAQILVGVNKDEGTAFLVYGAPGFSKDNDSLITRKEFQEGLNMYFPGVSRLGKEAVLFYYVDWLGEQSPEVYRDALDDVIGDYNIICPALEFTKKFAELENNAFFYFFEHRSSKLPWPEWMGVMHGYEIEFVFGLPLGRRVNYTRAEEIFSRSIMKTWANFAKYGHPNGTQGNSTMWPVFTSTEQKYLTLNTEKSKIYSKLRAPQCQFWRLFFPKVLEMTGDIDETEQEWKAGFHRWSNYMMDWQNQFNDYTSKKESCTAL

Row | SMILES | Selectivity for AChE (IC50 for BChE divided by IC50 for AChE) ([1]; mice brain AChE) | LD50 ([5]; p.o.) | Kd ([3]; Mean ± SD, n = 6) [nM] | k3 [3, 12] | ki [3, 13] | Carbamoylation half-time [3] [min] | Peripheral cholinergic side effects observed (Kunming mice) | LD50 (in vivo; ip) [mg/kg] | LD50 (in vivo; po) [mg/kg] | Type of AChE inhibition (rHuAChE) | IC50 [1] [nM] | Fold increase in inhibition of mice brain AChE compared with (−)-meptazinol ([1]; mice brain AChE) | IC50 (BChE (mice serum)) [nM] | Reduction of Aβ42 level ([9]; 16 h) [%] | Level of Aβ40 [9] | Reduction of intracellular APP level [10] [%] | also measured
1 | CC[C@@]1(c2cccc(O)c2)CCCCN(C)C1 [(−)-Meptazinol] | 0.37 |  |  |  |  |  |  |  |  |  |  |  |  |  |  |  | IC50 [2]: 41000 nM
2 | CNC(=O)Oc1ccc2c(c1)[C@]1(C)CCN(C)[C@@H]1N2C [Compound 1, (3aS)-(−)-physostigmine] |  | 4.5 (p.o.)^h mg/kg |  |  |  |  |  |  |  |  |  |  |  |  |  |  | k3 [3, 11]: (1.94 ± 0.36) × 10^−2 min^−1; ki [3, 11]: (4.78 ± 1.13) × 10^5 M^−1 min^−1; Carbamoylation half-time [4]: 3.9 min
3 | CN1CC[C@@]2(C)c3cc(OC(=O)Nc4ccccc4)ccc3N(C)[C@@H]12 [Compound 5, Phenserine] |  |  |  |  |  |  |  |  |  |  |  |  |  |  |  |  | IC50 [6]: 24 ± 6 nM; Decrease of total Aβ [7]: 31%; Decrease of APP level [8]: 40%; LD50 ([5]; i.p.): 25 (i.p.)^i mg/kg; IC50 (human serum BChE): 1300 ± 85 nM
5 | CC[C@@]1(c2cccc(OC(=O)N(C)C)c2)CCCCN(C)C1 [Compound 42, (S)-3-(3-ethyl-1-methylazepan-3-yl)phenyl dimethylcarbamate] | 0.46 |  | 30.2 | (1.35 ± 0.31) × 10^−2 min^−1 | (4.47 ± 1.21) × 10^5 M^−1min^−1 | 23.5 | salivation, twitch, and incontinence | 1.4 | 12 | uncompetitive inhibition | 6.93 ± 2.45 | 5900 | 3.17 ± 1.34 | 34.0 | unchanged | 23.5 | Decrease of Vmax (rHuAChE; inhibitor 100 nM): 18%; Vmax-app (rHuAChE; inhibitor 100 nM): 28.73 µM/min; Decrease of Vmax (rHuAChE; inhibitor 250 nM): 29%; Vmax-app (rHuAChE; inhibitor 250 nM): 24.70 µM/min; AChE inhibitory potency relative to rivastigmine (times more potent) ([1]; mice brain AChE): about 790
6 | CC[C@@]1(c2cccc(OC(=O)Nc3ccccc3)c2)CCCCN(C)C1 [Compound 43, (S)-3-(3-ethyl-1-methylazepan-3-yl)phenyl phenylcarbamate] | 2.1 |  | 108 | (2.18 ± 0.12) × 10^−2 min^−1 | (2.12 ± 0.46) × 10^5 M^−1min^−1 | 20.3 | salivation, twitch, and incontinence | 45 | 73 | uncompetitive inhibition | 31.6 ± 3.5 | 1300 | 67.1 ± 23.7 | 51.9 | unchanged | 26.9 | Decrease of Vmax (rHuAChE; inhibitor 25 nM): 10%; Vmax-app (rHuAChE; inhibitor 25 nM): 17.84 µM/min; Decrease of Vmax (rHuAChE; inhibitor 50 nM): 25%; Vmax-app (rHuAChE; inhibitor 50 nM): 14.94 µM/min; Times less potent than phenserine in AChE inhibition ([1]; against phenserine value of ref 22): 1.3; Decrease of Aβ42 level ([9]; 5 µM, 16 h): 30.5%; Decrease of APP level ([10]; 5 µM): 20.0%
